Holding throughout (type): in vivo
Assay [1] has as its system giant foxtail (Setaria faberii). The assay is described as follows: Test A preemergence. The note with it: Setaria faberi, pre-emergence, 240 h; for pest or weed control at 125 g/ha: 125 g ai/ha; for pest or weed control at 500 g/ha: 500 g ai/ha. In a few lines:
(§1)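 Treatment is preemergence as a directed soil spray after planting, or postemergence at the one- to two-leaf stage, with test chemical in a non-phytotoxic solvent mixture plus surfactant. Plants stay in the greenhouse about 10 d before visual injury scoring on a 0 to 100 scale versus untreated controls.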

Assay [2] relates to sedge, umbrella (small-flower umbrella sedge, Cyperus difformis). Description: Test B flooded paddy test. The note with it: Cyperus difformis, 250 g ai/ha, Flood, read-out: Sedge, Umbrella plant response rating. In outline: (§2)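 Rating scale 0–100 (visual, vs untreated controls) after a 13–15 d greenhouse period; application to the flood layer, 3 cm above soil and maintained; plants at 2-leaf stage when treated.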

Assay [3] has as its system ducksalad (Heteranthera limosa). Description: Test B flooded paddy test. The note with it: Heteranthera limosa, 250 g ai/ha, Flood, read-out: Ducksalad plant response rating. In a few lines:
as §2

For the next assay, the system named is rice (Oryra sativa). The assay is described as follows: Test B flooded paddy test. The following applies: Oryza sativa, 250 g ai/ha, Flood, read-out: Rice plant response rating. In a few lines:
as §2

The subject of assay [4] is barnyardgrass (Echinochloa crus-galli). Description: Test B flooded paddy test. The following applies: Echinochloa crus-galli, 250 g ai/ha, Flood, read-out: Barnyardgrass plant response rating. In a few lines:
as §2

In assay [5] the test system is ryegrass, Italian (Italian ryegrass, Lolium multiflorum). Description: Test A postemergence. The note with it: Lolium multiflorum, post-emergence, 240 h, 125 g ai/ha. In outline: as §1
Assay [6] has as its system Galium (catchweed bedstraw, Galium aparine). Description: Test A postemergence. The following applies: Galium, post-emergence, 240 h; for pest or weed control at 125 g/ha: 125 g ai/ha. In outline:
as §1

Assay [7] deals with ragweed (common ragweed, Ambrosia elatior). Description: Test A postemergence. The following applies: Ambrosia artemisiifolia, post-emergence, 240 h, 125 g ai/ha. In outline:
as §1

Assay [8] concerns pigweed (Amaranthus retroflexus). Description: Test A postemergence. The following applies: Amaranthus retroflexus, post-emergence, 240 h, 125 g ai/ha. In outline: as §1
For a further assay, the system named is Kochia (Kochia scoparia). The assay is described as follows: Test A postemergence. The following applies: Bassia scoparia, post-emergence, 240 h; for pest or weed control at 125 g/ha: 125 g ai/ha. In outline:
as §1

In the next assay the test system is corn (Zea mays). Description: Test A postemergence. The following applies: Zea mays, post-emergence, 240 h; for Corn plant response rating (crop injury, 0 = no effect, 100 = complete kill) at 125 g/ha: 125 g ai/ha, Postemergence, visual injury after approximately 10 d, 0 to 100 scale where 0 is no effect and 100 is complete control. In outline:
as §1

The test system of assay [9] is barnyardgrass (Echinochloa crus-galli). Description: Test A postemergence. The note with it: Echinochloa crus-galli, post-emergence, 240 h, read-out: Plant response rating, Barnyardgrass; for pest or weed control at 125 g/ha: 125 g ai/ha, Postemergence, visual injury after approximately 10 d, 0 to 100 scale where 0 is no effect and 100 is complete control. In outline: as §1

Assay [10] has as its system giant foxtail (Setaria faberii). The assay is described as follows: Test A postemergence. The following applies: Setaria faberi, post-emergence, 240 h; for pest or weed control at 125 g/ha: 125 g ai/ha. In outline:
as §1

Assay [11] relates to wheat (Triticum aestivum). Description: Test A postemergence. The following applies: Triticum aestivum, post-emergence, 240 h, 125 g ai/ha. In outline:
as §1

The test system of assay [12] is blackgrass (Alopecurus myosuroides). Description: Test A postemergence. The following applies: Alopecurus myosuroides, post-emergence, 240 h, read-out: Plant response rating, Blackgrass; for pest or weed control at 125 g/ha: 125 g ai/ha, Postemergence, visual injury after approximately 10 d, 0 to 100 scale where 0 is no effect and 100 is complete control. In a few lines:
as §1

Setting [13] is: preemergence, visual injury rating about 10 d after treatment, 0 to 100 scale (0 no effect, 100 complete control), read-out: Foxtail, Giant plant response rating.
The mark [14] stands for this setting: 0 to 100 scale where 0 is no effect and 100 is complete control.
Where [15] appears, read: 500 g ai/ha, postemergence, visual injury, 0 to 100 scale (0 no effect, 100 complete control), approx. 10 d.
The mark [16] stands for this setting: preemergence, 0 to 100 scale where 0 is no effect and 100 is complete control, read-out: Foxtail, Giant plant response rating.
The mark [17] stands for this setting: scale of 0 to 100 where 0 is no effect and 100 is complete control.
[18] abbreviates: Postemergence, visual injury after approximately 10 d, 0 to 100 scale where 0 is no effect and 100 is complete control, read-out: Plant response rating, Ryegrass, Italian.
[19] abbreviates: Postemergence, visual injury after approximately 10 d, 0 to 100 scale where 0 is no effect and 100 is complete control, read-out: Plant response rating, Galium.
Where [20] appears, read: Postemergence, visual injury after approximately 10 d, 0 to 100 scale where 0 is no effect and 100 is complete control, read-out: Plant response rating, Ragweed.
[21] abbreviates: Postemergence, visual injury after approximately 10 d, 0 to 100 scale where 0 is no effect and 100 is complete control, read-out: Plant response rating, Pigweed.
[22] abbreviates: Postemergence, visual injury after approximately 10 d, 0 to 100 scale where 0 is no effect and 100 is complete control, read-out: Plant response rating, Kochia.
[23] abbreviates: Postemergence, visual injury after approximately 10 d, 0 to 100 scale where 0 is no effect and 100 is complete control, read-out: Plant response rating, Foxtail, Giant.
Setting [24] is: Postemergence, visual injury after approximately 10 d, 0 to 100 scale where 0 is no effect and 100 is complete control, read-out: Plant response rating, Wheat.

Where two headings read alike, the source gives them in different places.

On to `Cc1cc([C@H]2CNC(=O)[C@@H]2C(=O)Nc2cccc(F)c2F)ccc1C(F)(F)F` [Compound 1040], for which the pest or weed control at 125 g/ha was 90% in [1] (Preemergence, visual injury rating after approximately 10 d, read-out: Foxtail, Giant plant response rating (0 to 100 scale, 0 is no effect, 100 is complete control)); 30% in assay [5] (postemergence, visual injury on 0 to 100 scale (0 no effect, 100 complete control), approx. 10 d, read-out: Ryegrass, Italian plant response rating); 50% in assay [6] (postemergence, visual injury on 0 to 100 scale (0 no effect, 100 complete control), approx. 10 d, read-out: Galium plant response rating); 0% in assay [7] (postemergence, visual injury on 0 to 100 scale (0 no effect, 100 complete control), approx. 10 d, read-out: Ragweed plant response rating); 40% in [8] (postemergence, visual injury on 0 to 100 scale (0 no effect, 100 complete control), approx. 10 d, read-out: Pigweed plant response rating); 60% in the assay with Kochia (Kochia scoparia) (postemergence, visual injury on 0 to 100 scale (0 no effect, 100 complete control), approx. 10 d, read-out: Kochia plant response rating). For the same molecule, the pest or weed control at 125 g/ha in assay [9] came out at 80%; in assay [10] (postemergence, visual injury on 0 to 100 scale (0 no effect, 100 complete control), approx. 10 d, read-out: Foxtail, Giant plant response rating), 80%; in assay [12], 60%. The pest or weed control at 500 g/ha in assay [1] (setting [13]) stood at 90%; in assay [6] (500 g ai/ha, postemergence, visual injury, 0 to 100 scale (0 no effect, 100 complete control), approx. 10 d, read-out: Plant response rating, Galium) it was 70%; with Kochia (Kochia scoparia) (500 g ai/ha, postemergence, visual injury, 0 to 100 scale (0 no effect, 100 complete control), approx. 10 d, read-out: Plant response rating, Kochia), 70%; in assay [9] (setting [15]), 90%; in assay [10] (500 g ai/ha, postemergence, visual injury, 0 to 100 scale (0 no effect, 100 complete control), approx. 10 d, read-out: Plant response rating, Foxtail, Giant), 90%; in [12] (setting [15]), 70%. Also, the pest or weed control at 250 g/ha in assay [2] (setting [14]) was determined as 0%; in assay [3] (setting [14]), 75%; with rice (Oryra sativa) (setting [14]), 0%; in assay [4] (setting [14]), 60%. In the assay with corn (Zea mays), this molecule had a Corn plant response rating (crop injury, 0 = no effect, 100 = complete kill) at 125 g/ha of 60%. In addition, the Corn plant response rating (crop injury, 0 = no effect, 100 = complete kill) at 500 g/ha in the assay on corn (Zea mays) (setting [15]) was determined as 80%. Further, the plant injury at 125 g/ha in assay [11] (postemergence, visual injury on 0 to 100 scale (0 no effect, 100 complete control), approx. 10 d, read-out: Wheat plant response rating) was 20%.
As to `Cc1cc(F)ccc1NC(=O)[C@H]1C(=O)N(C)C[C@@H]1c1ccc(C(F)(F)F)cc1` [Compound 936], the pest or weed control at 125 g/ha in assay [1] (setting [16]) is 90%; in [5] (setting [18]) it was 0%; in [6] (setting [19]), 40%; in assay [7] (setting [20]) it was 0%; in assay [8] (setting [21]), 20%; in the assay on Kochia (Kochia scoparia) (setting [22]), 20%. Moreover, the pest or weed control at 125 g/ha in assay [9] worked out at 60%; in [10] (setting [23]), 90%; in assay [12] it was 30%. Further, in [1] (setting [13]), the pest or weed control at 500 g/ha came out at 90%. The pest or weed control at 250 g/ha in assay [2] (setting [17]) was 0%; in [3] (setting [17]), 85%; with rice (Oryra sativa) (setting [17]) it was 0%; in assay [4] (setting [17]), 0%. In the assay with corn (Zea mays), this molecule showed a Corn plant response rating (crop injury, 0 = no effect, 100 = complete kill) at 125 g/ha of 30%. In addition, the plant injury at 125 g/ha in assay [11] (setting [24]) stood at 30%.
Consider `CN1CC[C@H](c2cccc(C(F)(F)F)c2)[C@@H](C(=O)Nc2ccccc2S(C)(=O)=O)C1=O` [Compound 920], for which the pest or weed control at 125 g/ha in [1] (setting [16]) came to 80%; in assay [5] (setting [18]), 0%; in assay [6] (setting [19]), 0%; in assay [7] (setting [20]) it was 0%; in assay [8] (setting [21]), 0%; with Kochia (Kochia scoparia) (setting [22]) it was 0%. In addition, the results for the pest or weed control at 125 g/ha in [9], in assay [10] (setting [23]) and in [12] were 40%, 20% and 0%, respectively. The pest or weed control at 500 g/ha in [1] (Preemergence, visual injury vs untreated controls after approximately 10 d, read-out: Foxtail, Giant plant response rating (0 to 100 scale where 0 is no effect and 100 is complete control)) worked out at 90%. In addition, the pest or weed control at 250 g/ha (in assay [2] (setting [17]); in assay [3] (setting [17]); in the assay on rice (Oryra sativa) (setting [17]); in assay [4] (setting [17])) was 0% throughout. Moreover, the Corn plant response rating (crop injury, 0 = no effect, 100 = complete kill) at 125 g/ha with corn (Zea mays) came out at 0%. The plant injury at 125 g/ha in [11] (setting [24]) was 0%.

For the origin of these results see US12077503B2, “Substituted cyclic amides and their use as herbicides” (FMC CORPORATION, priority 2015, dated 2024).
